# From US20230293407A1, “Compositions Comprising (Bio)-Alkanediols with Antimicrobials for Product Protection” (Symrise AG, priority 2020, published 2023)
# Key:
# Assay in all cases: preservation efficacy test (PET), European Pharmacopoeia 5.1.3
# Assay type in all cases: cell-based
# [1] = tested on: Candida albicans; conditions: for CA germ count, 28 days / CA germ count, 2 days / CA germ count, 7 days / CA germ count, 14 days: substance at given % in test formulation; for CA germ count, 2 days: 2 days after inoculation
# [2] = tested on: Staphylococcus aureus; conditions: for SA germ count, 2 days / SA germ count, 7 days / SA germ count, 14 days / SA germ count, 28 days: substance at given % in test formulation; for count at 2 days / count at 7 days / count at 14 days / count at 28 days: SA, use concentration in label
# [3] = tested on: Escherichia coli; conditions: for EC germ count, 2 days / EC germ count, 7 days / EC germ count, 14 days / EC germ count, 28 days: substance at given % in test formulation
# [4] = tested on: Pseudomonas aeruginosa; conditions: for count at 2 days / count at 7 days / count at 14 days / count at 28 days: PA, use concentration in label; for PA germ count, 2 days / PA germ count, 7 days / PA germ count, 14 days / PA germ count, 28 days: substance at given % in test formulation
# [5] = EC, 7 days after inoculation, use concentration in label
# [6] = EC, 14 days after inoculation, use concentration in label
# [7] = EC, 28 days after inoculation, use concentration in label
# [8] = 2 days after inoculation, o/w emulsion (Table 53)
# [9] = 7 days after inoculation, o/w emulsion (Table 53)
# [10] = 14 days after inoculation, o/w emulsion (Table 53)
# [11] = 28 days after inoculation, o/w emulsion (Table 53)
structure (smiles),measurement,setting,value
CCCCCC(O)CO (stereo not shown) [0.2% 1.2-heptanediol],"CA germ count, 28 days",[1]; 28 days after inoculation,310.000
same,"SA germ count, 2 days",[2]; 2 days after inoculation,12.000
same,"SA germ count, 7 days",[2]; 7 days after inoculation,1
same,"EC germ count, 2 days",[3]; 2 days after inoculation,780.000
same,"EC germ count, 7 days",[3]; 7 days after inoculation,83.000
same,"EC germ count, 14 days",[3]; 14 days after inoculation,11.000
same,"EC germ count, 28 days",[3]; 28 days after inoculation,180
CC(C)=CCC/C(C)=C/CC/C(C)=C/CO [0.3% farnesol],count at 2 days,[4]; 2 days after inoculation,460.000
same,count at 7 days,[4]; 7 days after inoculation,380.000
same,count at 14 days,[4]; 14 days after inoculation,610.000
same,count at 28 days,[4]; 28 days after inoculation,65.000
same,count at 7 days,"[1]; CA, 7 days after inoculation, use concentration in label",880.000
same,count at 2 days,[2]; 2 days after inoculation,720.000
same,count at 7 days,[2]; 7 days after inoculation,52.000
same,count at 14 days,[2]; 14 days after inoculation,100.000
same,count at 28 days,[2]; 28 days after inoculation,33.000
same,count at 7 days,[3]; [5],390.000
same,count at 14 days,[3]; [6],12.000
same,count at 28 days,[3]; [7],1.000
CC(CO)CCCC1CCCCC1 (stereo not shown) [1.0% 2-Methyl 5-Cyclohexylpentanol],"PA germ count, 2 days",[4]; 2 days after inoculation,670.000
same,"PA germ count, 7 days",[4]; 7 days after inoculation,570.000
same,"PA germ count, 14 days",[4]; 14 days after inoculation,780.000
same,"CA germ count, 28 days",[1]; 28 days after inoculation,630.000
same,"SA germ count, 2 days",[2]; 2 days after inoculation,110.000
same,"SA germ count, 7 days",[2]; 7 days after inoculation,760
same,"SA germ count, 14 days",[2]; 14 days after inoculation,1
same,"SA germ count, 28 days",[2]; 28 days after inoculation,1
same,"EC germ count, 2 days",[3]; 2 days after inoculation,960.000
same,"EC germ count, 7 days",[3]; 7 days after inoculation,490.000
same,"EC germ count, 14 days",[3]; 14 days after inoculation,310.000
same,"EC germ count, 28 days",[3]; 28 days after inoculation,380.000
CCCCCC(O)CO (stereo not shown) [0.3% 1.2-heptanediol],count at 2 days,[4]; 2 days after inoculation,1
same,count at 7 days,[4]; 7 days after inoculation,1
same,count at 14 days,[4]; 14 days after inoculation,1
same,count at 28 days,[4]; 28 days after inoculation,1
same,count at 14 days,"[1]; CA, 14 days after inoculation, use concentration in label",260.000
same,count at 28 days,"[1]; CA, 28 days after inoculation, use concentration in label",150.000
same,count at 2 days,[2]; 2 days after inoculation,16.000
same,count at 7 days,[2]; 7 days after inoculation,1
same,count at 14 days,[2]; 14 days after inoculation,1
same,count at 28 days,[2]; 28 days after inoculation,1
same,count at 2 days,"[3]; EC, 2 days after inoculation, use concentration in label",130.000
same,count at 7 days,[3]; [5],2.400
same,count at 14 days,[3]; [6],1
same,count at 28 days,[3]; [7],1
CCCCCCCC(=O)OCC(O)CO (stereo not shown) [0.1% glyceryl caprylate],"PA germ count, 2 days",[4]; 2 days after inoculation,1.800
same,"PA germ count, 7 days",[4]; 7 days after inoculation,690
same,"PA germ count, 14 days",[4]; 14 days after inoculation,2.400
same,"PA germ count, 28 days",[4]; 28 days after inoculation,39.000
same,"CA germ count, 2 days",[1],990.000
same,"CA germ count, 7 days",[1]; 7 days after inoculation,690.000
same,"CA germ count, 14 days",[1]; 14 days after inoculation,280.000
same,"CA germ count, 28 days",[1]; 28 days after inoculation,220.000
same,"SA germ count, 2 days",[2]; 2 days after inoculation,15.000
same,"SA germ count, 7 days",[2]; 7 days after inoculation,1
same,"SA germ count, 14 days",[2]; 14 days after inoculation,1
same,"SA germ count, 28 days",[2]; 28 days after inoculation,1
same,"EC germ count, 2 days",[3]; 2 days after inoculation,1
same,"EC germ count, 7 days",[3]; 7 days after inoculation,1
same,"EC germ count, 14 days",[3]; 14 days after inoculation,1
same,"EC germ count, 28 days",[3]; 28 days after inoculation,1
"CCCCC(CC)COCC(O)CO (stereo not shown) [Ethylhexlglycerin, Ethylhexylglycerin, reference compound]","germ count PA, 2 days",[4]; [8],1
same,"germ count PA, 7 days",[4]; [9],1
same,"germ count PA, 14 days",[4]; [10],1
same,"germ count PA, 28 days",[4]; [11],1
same,"number of microorganisms, 2 days","[4]; PET, Pseudomonas aeruginosa (PA), 2 days after inoculation",1
same,"number of microorganisms, 7 days","[4]; PET, Pseudomonas aeruginosa (PA), 7 days after inoculation",1
same,"number of microorganisms, 14 days","[4]; PET, Pseudomonas aeruginosa (PA), 14 days after inoculation",1
same,"number of microorganisms, 28 days","[4]; PET, Pseudomonas aeruginosa (PA), 28 days after inoculation",1
same,"germ count CA, 28 days",[1]; [11],950.000
same,"number of microorganisms, 28 days","[1]; PET, Candida albicans (CA), 28 days after inoculation",950.000
same,"germ count SA, 2 days",[2]; [8],240.000
same,"germ count SA, 7 days",[2]; [9],36
same,"germ count SA, 14 days",[2]; [10],1
same,"germ count SA, 28 days",[2]; [11],1
same,"number of microorganisms, 2 days","[2]; PET, Staphylococcus aureus (SA), 2 days after inoculation",240.000
same,"number of microorganisms, 7 days","[2]; PET, Staphylococcus aureus (SA), 7 days after inoculation",36
same,"number of microorganisms, 14 days","[2]; PET, Staphylococcus aureus (SA), 14 days after inoculation",1
same,"number of microorganisms, 28 days","[2]; PET, Staphylococcus aureus (SA), 28 days after inoculation",1
same,"germ count EC, 2 days",[3]; [8],10.000
same,"germ count EC, 7 days",[3]; [9],82
same,"germ count EC, 14 days",[3]; [10],1
same,"germ count EC, 28 days",[3]; [11],1
same,"number of microorganisms, 2 days","[3]; PET, Escherichia coli (EC), 2 days after inoculation",10.000
same,"number of microorganisms, 7 days","[3]; PET, Escherichia coli (EC), 7 days after inoculation",82
same,"number of microorganisms, 14 days","[3]; PET, Escherichia coli (EC), 14 days after inoculation",1
same,"number of microorganisms, 28 days","[3]; PET, Escherichia coli (EC), 28 days after inoculation",1
"CCCCCCC(O)CO (stereo not shown) [0.2% 1,2-octanediol]","PA germ count, 2 days",[4]; 2 days after inoculation,1
same,"PA germ count, 7 days",[4]; 7 days after inoculation,1
same,"PA germ count, 14 days",[4]; 14 days after inoculation,1
same,"PA germ count, 28 days",[4]; 28 days after inoculation,1
same,"CA germ count, 2 days",[1],950.000
same,"CA germ count, 7 days",[1]; 7 days after inoculation,15.000
same,"CA germ count, 14 days",[1]; 14 days after inoculation,36
same,"CA germ count, 28 days",[1]; 28 days after inoculation,1
same,"SA germ count, 2 days",[2]; 2 days after inoculation,1
same,"SA germ count, 7 days",[2]; 7 days after inoculation,1
same,"SA germ count, 14 days",[2]; 14 days after inoculation,1
same,"SA germ count, 28 days",[2]; 28 days after inoculation,1
same,"EC germ count, 2 days",[3]; 2 days after inoculation,1
same,"EC germ count, 7 days",[3]; 7 days after inoculation,1
same,"EC germ count, 14 days",[3]; 14 days after inoculation,1
same,"EC germ count, 28 days",[3]; 28 days after inoculation,1
